# Results taken from publication PMC7611705 (Science translational medicine, 2021).
# Structures can show the parent of a compound that is named as a salt.
# Legend:
# [1] = tested on: A549 cells; assay: Western blot of BCL2, cIAP1 and cIAP2 expression in A549 cells; format: cell-based; conditions: 24 h
# [2] = tested on: A549 cells; assay: Caspase activation in A549 cells; format: cell-based; conditions: cisplatin 12.5 μM 24 h
# [3] = tested on: A549 cells; assay: Random cell migration / 3D collagen-I invasion of A549 cells; format: cell-based; conditions: for cell migration/invasiveness: inhibitors 10 μM
# [4] = biological target: RSK4 N-terminal kinase domain (RSK4-NTKD) (Homo sapiens, UniProt Q9UK32); assay: Differential scanning fluorimetry; format: binding; conditions: inactive/dephosphorylated (APO) vs fully-active (ATP)
# Chain of RSK4 N-terminal kinase domain (RSK4-NTKD) (Q9UK32 48-349): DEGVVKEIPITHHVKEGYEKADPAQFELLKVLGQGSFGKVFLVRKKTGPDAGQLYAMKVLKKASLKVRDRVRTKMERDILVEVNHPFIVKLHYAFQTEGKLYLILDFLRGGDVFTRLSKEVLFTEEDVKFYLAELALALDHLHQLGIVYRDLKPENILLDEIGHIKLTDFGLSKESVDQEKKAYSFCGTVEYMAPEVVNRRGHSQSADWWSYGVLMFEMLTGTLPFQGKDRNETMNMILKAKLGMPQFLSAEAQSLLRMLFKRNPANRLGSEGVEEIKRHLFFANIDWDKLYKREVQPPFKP
# [5] = biological target: T1, RSK4 (Homo sapiens, UniProt Q9UK32); assay: biochemical; conditions: for activity in RSK4 HTRF-activation assay (inhibitor or inactive): floxacin family members
# T1 sequence (Q9UK32 whole entry): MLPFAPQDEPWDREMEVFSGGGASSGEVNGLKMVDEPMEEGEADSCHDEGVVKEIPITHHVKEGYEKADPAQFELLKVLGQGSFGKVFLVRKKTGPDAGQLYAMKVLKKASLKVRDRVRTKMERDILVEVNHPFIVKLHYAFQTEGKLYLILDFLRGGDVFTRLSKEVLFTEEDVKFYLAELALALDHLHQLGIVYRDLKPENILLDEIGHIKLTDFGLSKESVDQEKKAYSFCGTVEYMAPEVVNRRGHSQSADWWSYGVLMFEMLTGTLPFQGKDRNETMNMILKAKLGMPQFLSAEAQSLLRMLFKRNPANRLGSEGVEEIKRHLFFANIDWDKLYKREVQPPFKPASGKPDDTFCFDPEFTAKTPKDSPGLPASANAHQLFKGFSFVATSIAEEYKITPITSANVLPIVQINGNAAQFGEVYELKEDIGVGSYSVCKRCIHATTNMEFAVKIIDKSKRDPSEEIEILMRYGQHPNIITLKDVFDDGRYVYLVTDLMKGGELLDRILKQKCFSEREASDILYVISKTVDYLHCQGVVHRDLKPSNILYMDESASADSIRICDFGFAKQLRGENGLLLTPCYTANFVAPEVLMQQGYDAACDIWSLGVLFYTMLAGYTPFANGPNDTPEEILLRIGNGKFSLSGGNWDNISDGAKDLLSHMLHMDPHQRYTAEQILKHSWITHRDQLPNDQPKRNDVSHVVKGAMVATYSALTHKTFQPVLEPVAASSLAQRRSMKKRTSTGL
# [6] = tested on: patients undergoing chemotherapy; assay: Retrospective overall survival analysis of the SIGNIFICANT trial; format: in vivo, human
# [7] = tested on: cIAP1 and cIAP2; assay: Cellular cIAP1 and cIAP2 expression after levofloxacin; format: cell-based; conditions: concentrations achievable from the clinical trial dose
# [8] = biological target: T1, RSK4; format: biochemical
# [9] = biological target: ERK (Homo sapiens, UniProt P28482); assay: ERK activity; format: biochemical
# Chain of ERK (P28482 whole entry): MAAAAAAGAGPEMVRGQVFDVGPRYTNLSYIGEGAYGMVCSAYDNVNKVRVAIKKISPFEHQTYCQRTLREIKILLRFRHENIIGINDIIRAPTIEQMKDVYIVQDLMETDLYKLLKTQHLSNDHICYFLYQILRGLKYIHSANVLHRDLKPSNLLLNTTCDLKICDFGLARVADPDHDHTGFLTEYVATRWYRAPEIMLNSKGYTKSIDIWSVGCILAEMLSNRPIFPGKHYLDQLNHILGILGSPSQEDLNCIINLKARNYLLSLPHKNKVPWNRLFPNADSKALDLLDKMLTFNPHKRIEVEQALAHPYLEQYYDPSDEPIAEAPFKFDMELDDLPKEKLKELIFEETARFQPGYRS
# [10] = tested on: A549-Luc xenograft; assay: A549-Luc subcutaneous xenograft in nude mice; format: in vivo; conditions: 30 mg/kg daily oral gavage, 14 days
# [11] = tested on: panel of 140 kinases; assay: In-vitro activity screen against a panel of 140 kinases; format: biochemical; conditions: 10 μM
# [12] = biological target: RSK1 (Homo sapiens, UniProt Q15418); assay: RSK1 activation in cells; format: cell-based; conditions: preliminary data
# Chain of RSK1 (Q15418 whole entry): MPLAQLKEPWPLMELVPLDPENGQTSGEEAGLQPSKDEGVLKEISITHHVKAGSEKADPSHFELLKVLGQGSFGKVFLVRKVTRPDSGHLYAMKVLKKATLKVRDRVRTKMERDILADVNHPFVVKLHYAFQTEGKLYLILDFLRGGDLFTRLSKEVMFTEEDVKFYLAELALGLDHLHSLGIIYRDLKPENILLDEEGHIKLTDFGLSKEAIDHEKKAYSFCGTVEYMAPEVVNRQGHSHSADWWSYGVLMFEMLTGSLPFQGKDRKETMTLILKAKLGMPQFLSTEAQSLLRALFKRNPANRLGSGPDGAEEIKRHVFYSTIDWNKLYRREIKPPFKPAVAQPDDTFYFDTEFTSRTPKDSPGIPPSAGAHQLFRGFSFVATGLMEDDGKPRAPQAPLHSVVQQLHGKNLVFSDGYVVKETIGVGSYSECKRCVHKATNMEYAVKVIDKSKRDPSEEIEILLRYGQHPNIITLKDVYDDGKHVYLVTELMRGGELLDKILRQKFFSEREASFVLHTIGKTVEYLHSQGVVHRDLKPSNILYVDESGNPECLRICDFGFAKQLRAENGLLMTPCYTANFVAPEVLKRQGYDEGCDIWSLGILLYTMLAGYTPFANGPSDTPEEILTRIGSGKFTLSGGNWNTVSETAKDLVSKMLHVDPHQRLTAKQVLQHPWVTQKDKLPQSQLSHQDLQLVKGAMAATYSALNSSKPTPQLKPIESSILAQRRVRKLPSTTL
# [13] = tested on: bladder cancer explants; assay: Patient-derived bladder cancer explants; conditions: synergistic in two, additive in one
# [14] = tested on: A549 cells; assay: Cisplatin/taxol sensitisation of A549 cells; format: cell-based
compound,measurement,setting,value
CC(C)CCN1c2nc(Nc3cc(F)c(O)c(F)c3)ncc2N(C)C(=O)C1C (centres unmarked) [BI-D1870],expression of BCL2 and cIAP1/2,[1],an effect not seen
same,caspase activation in response to cisplatin,[2],failed to promote cisplatin-induced caspase activation
CC(=O)O[C@@H]1[C@@H](OC(C)=O)[C@@H](O)[C@H](Oc2c(-c3ccc(O)cc3)oc3cc(O)cc(O)c3c2=O)O[C@H]1C [SL-0101],invasiveness of A549 cells with pan-RSK inhibitor,[3],promotes lung cancer invasiveness
O=C(O)c1cn(C2CC2)c2cc(N3CCNCC3)c(F)cc2c1=O [ciprofloxacin],binding to RSK4-NTKD,[4],failed to bind RSK4
same,expression of BCL2 and cIAP1/2,[1],an effect not seen
same,cell migration/invasiveness,[3],did not impair cell invasiveness
CN1C[C@@H]2C[C@H]1CN2c1cc2c(cc1F)c(=O)c(C(=O)O)cn2C1CC1 [danofloxacin],activity in RSK4 HTRF-activation assay (inhibitor or inactive),[5],inactive analogues
same,cell migration/invasiveness,[3],did not impair cell invasiveness
C[C@H]1COc2c(N3CCN(C)CC3)c(F)cc3c(=O)c(C(=O)O)cn1c23 [levofloxacin],hazard ratio for overall survival vs placebo,"[6]; adherent patients (n=937), 95% CI 0.69-0.999, p=0.048",0.83
same,hazard ratio in lung and bladder cancer patients compared to the entire cohort,[6]; lung and bladder cancer patients,further improved
same,hazard ratio for overall survival vs placebo,"[6]; non-adherent patients (n=543), 95% CI 0.89-1.40, p=0.36",1.11
same,median overall survival,[6]; patients adhering to trial treatment (n=937),72 months
same,activity in RSK4 HTRF-activation assay (inhibitor or inactive),[5],inhibited RSK4 activation
same,cellular cIAP1 and cIAP2 expression,[7],decreased cellular cIAP1 and cIAP2 expression
CN1CCN(c2c(F)cc3c(=O)c(C(=O)O)cn4c3c2OCN4C)CC1 [marbofloxacin],activity in RSK4 HTRF-activation assay (inhibitor or inactive),[5],additional inhibitors
COc1c(N2C[C@@H]3CCCN[C@@H]3C2)c(F)cc2c(=O)c(C(=O)O)cn(C3CC3)c12 [moxifloxacin],IC50,[5],6.2 µM
same,mode of inhibition of RSK4 activation,[5],non-ATP competitive reversible inhibitor of RSK4 activation
same,preference RSK4 activation vs fully-active RSK4,[5],preference for preventing RSK4 activation rather than inhibiting fully-active RSK4
same,selectivity RSK4 vs RSK1,[5],favoured RSK4 over RSK1
same,inhibition at 30 µM,[5]; read-out: inhibition of RSK4 activation,> 75%
same,cell migration/invasiveness,[3],shared this ability
same,α (non-competitive binding to Enzyme and Enzyme-Substrate state),[8],1
same,effect on ATP Km and Vmax of RSK4,[8]; sub-maximal inhibition,maintained Km and displayed reduced Vmax
same,effect on ERK activity,[9],did not interfere with ERK activity
CCn1cc(C(=O)O)c(=O)c2cnc(N3CCCC3)nc21 [piromidic acid],activity in RSK4 HTRF-activation assay (inhibitor or inactive),[5],inactive analogues
CN1CCN(c2c(F)cc3c(=O)c(C(=O)O)cn4c3c2SCC4)CC1 [rufloxacin],activity in RSK4 HTRF-activation assay (inhibitor or inactive),[5],additional inhibitors
"NC1CCN(c2nc3c(cc2F)c(=O)c(C(=O)O)cn3-c2ccc(F)cc2F)C1 (centres unmarked) [tosufloxacin, tosufloxacin tosylate]",activity in RSK4 HTRF-activation assay (inhibitor or inactive),[5],additional inhibitors
same,cell migration/invasiveness,[3],shared this ability
N[C@@H]1[C@H]2CN(c3nc4c(cc3F)c(=O)c(C(=O)O)cn4-c3ccc(F)cc3F)C[C@@H]12 [trovafloxacin],tumour growth vs vehicle-only,[10],significantly (p<0.05) decreased tumour growth
same,binding to RSK4-NTKD,[4],"bound the inactive/dephosphorylated, but not the fully-active"
same,expression of BCL2 and cIAP1/2,[1],decreased expression of BCL2 and cIAP1/2
same,inhibition of other kinases,[11],No other kinase was substantially inhibited
same,caspase activation in response to cisplatin,[2],promotion of caspase activation
same,IC50,[5],10 µM
same,activity in RSK4 HTRF-activation assay (inhibitor or inactive),[5],additional inhibitors
same,cell migration/invasiveness,[3],reproduced the inhibition of cell migration/invasiveness
same,activation of RSK1 in cells,[12],does not inhibit the activation of RSK1 in cells
same,benefit of combination with cisplatin in explants,[13],beneficial in 3 out of 4 patient-derived bladder cancer explants
same,sensitisation of A549 cells to cisplatin,"[14]; 7.5 μM, cisplatin 12.5 μM for 72 h",reducing the IC50 for cisplatin
same,concentration giving maximal potentiation of cisplatin or taxol effects,[14]; A549 cells,≈ 10 μM
same,nature of the relationship with cisplatin,[14]; A549 cells,synergistic
